Columns and labels:
Nox2 = target: T1, Nox2 (Homo sapiens, UniProt P04839); experiment: Rapid HPLC analysis of HE oxidation (2-OH-E+) for O2•− production by activated dHL60 cells; format: cell-based; settings: 1 h incubation after PMA, Figure 5D,E
T1 construct: endogenous in cells
T1 sequence (P04839 2-570 limits assumed): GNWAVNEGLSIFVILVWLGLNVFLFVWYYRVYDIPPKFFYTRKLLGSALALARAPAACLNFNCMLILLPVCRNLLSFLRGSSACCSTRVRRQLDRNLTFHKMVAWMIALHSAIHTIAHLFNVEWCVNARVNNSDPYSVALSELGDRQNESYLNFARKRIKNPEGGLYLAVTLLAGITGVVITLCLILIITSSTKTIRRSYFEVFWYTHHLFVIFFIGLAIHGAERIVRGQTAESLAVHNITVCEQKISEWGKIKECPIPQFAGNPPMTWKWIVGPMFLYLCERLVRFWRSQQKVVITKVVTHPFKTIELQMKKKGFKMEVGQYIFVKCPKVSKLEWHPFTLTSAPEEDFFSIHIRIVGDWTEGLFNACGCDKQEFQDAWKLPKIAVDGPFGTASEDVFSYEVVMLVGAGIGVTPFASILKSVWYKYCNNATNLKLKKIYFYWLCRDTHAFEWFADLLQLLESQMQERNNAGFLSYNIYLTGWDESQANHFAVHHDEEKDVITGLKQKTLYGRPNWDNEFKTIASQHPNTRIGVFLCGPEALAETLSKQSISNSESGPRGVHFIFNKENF
T1 sequence (P13498 2-195 partner limits assumed): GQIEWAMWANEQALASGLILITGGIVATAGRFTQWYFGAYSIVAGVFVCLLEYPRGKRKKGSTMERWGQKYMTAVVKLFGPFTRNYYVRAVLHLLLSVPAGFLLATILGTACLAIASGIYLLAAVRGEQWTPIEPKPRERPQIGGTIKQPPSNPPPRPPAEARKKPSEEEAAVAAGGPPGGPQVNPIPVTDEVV
Procedure: For high-performance liquid chromatography (HPLC)-based analyses of superoxide production by activated dHL60 cells, the cells (0.8 mL, 2 × 10^5 cells/mL) were pretreated with inhibitors for 30 min, as described above, followed by the addition of 200 µL of the mixture of PMA (5 µM) and HE (50 µM); then, they were incubated for 1 h at 37 °C in the dark. Next, 0.5 mL aliquots of the cell suspensions were transferred into 1.5 mL microcentrifuge tubes prefilled with 10 µL of a mixture of 3,8-diamino-6-phenylphenanthridine (50 µM, used as an internal standard), superoxide dismutase, and catalase (5 mg/mL and 5 kU/mL, respectively, used to stop probe oxidation), and the tubes were centrifugated (5 min, 3000× g) to pellet the cells. Clear supernatants (0.2 mL) were transferred into HPLC vials and analyzed for HE, 2-hydroxyethidium (2–OH–E^+), ethidium (E^+), and diethidium (E^+–E^+) content, as described previously. Briefly, an Agilent 1100 HPLC system equipped with an Ascentis Express Phenyl-Hexyl column (50 mm × 4.6 mm, 2.7 µm, Supelco, Bellefonte, PA, USA) and absorption and fluorescence detectors was used. […] Samples (25 µL) were injected, and the products were detected by monitoring absorbance (290 and 370 nm) and fluorescence (exc. 370 nm, emi. 565 nm) signals.

[1] = Short-term (seven day) in vivo toxicity in mice; parameters: species or system C57BL/6 mice; settings: 20 mg/kg i.p. daily for seven days
Procedure: All animal experiments were performed according to protocols and guidelines approved by the Emory University Animal Care and Use Committee. The in vivo toxicity of TG15-132 was assessed using C57BL/6 mice (cat. no. 027, Charles River Laboratories, Wilmington, MA, USA). Animals were injected daily (i.p.) with saline, vehicle (DMSO 10%, PEG400 30%, water 60%), or 20 mg/kg of TG15-132 in vehicle for seven days, with body weight recorded each day. At the end of treatment, organs were harvested to study organ weight loss, and blood was collected from each mouse via cardiac puncture, and serum was isolated. Serum was analyzed for kidney function using blood urea nitrogen and creatinine, liver function using alanine amino transferase, and tissue damage using lactate dehydrogenase.

CN(C)CCCn1c(SCCc2c[nH]c3ccccc23)nc2ccc(F)cc2c1=O [TG15-132]
HE consumption and 2-OH-E+ formation (HPLC) (Nox2): inhibited by cell pretreatment with TG15-132 in a dose-dependent manner
blood urea nitrogen compared with saline-treated mice [1]: significant drop
weights of the lung, liver, or brain [1]: no changes
loss of body weight ([1]; marginal and nonsignificant): 7%
serum injury markers (BUN, creatinine, ALT, LDH) vs vehicle ([1]; n = 6): no differences

Source: paper PMC10525516, “Novel NADPH Oxidase-2 Inhibitors as Potential Anti-Inflammatory and Neuroprotective Agents” (Antioxidants, 2023)
